The record followed here is patent US10932454B2, “LDL receptor gene knockout, genetically-engineered hamster” (HEBEI INVIVO BIOTECH INC, priority 2016, dated 2021).

Entries after “also recorded” stand apart in the source; their conditions may differ.

Data set [1] relates to wild type control hamsters. As to the kind of experiment: High-fat diet feeding with intragastric ezetimibe in wild type hamsters; plasma lipids. The settings on record: WT hamsters, high-fat diet plus 2 mg/kg ezetimibe intragastric daily for two weeks. It counts as in vivo, golden Syrian hamster. How it is done: The high-fat diet used in the study was a normal rodent diet containing 0.5% cholesterol and 10% lard. The dose of ezetimibe was 2 mg/kg body weight, administered by intragastric administration, and the control group was given tri-distilled water. Plasma was collected before high-fat diet feeding, after two weeks of high-fat diet feeding, before administration and after two weeks of administration, respectively. The hamsters were fasted for 12 hours at night, anesthetized by intraperitoneal injection of pentobarbital sodium, and about 1 ml of blood was collected from the posterior orbital vein, and heparin was used for anticoagulation. A plasma triglyceride assay kit and a total cholesterol assay kit (Biosino Bio-Technology and Science Inc.) were used to detect plasma triglyceride and total cholesterol levels. High-density lipoprotein cholesterol (HDL-C) was tested for cholesterol levels after removal of apoB-containing lipoproteins by polyethylene glycol precipitation. The lipid component of plasma lipoprotein was detected by using fast protein liquid chromatography (FPLC) instrument of Amersham Biocsciences, USA, and the plasma lipoprotein fraction was firstly separated by superose 6 HR10/30 column. […]

Data set [2] has as its system LDL-R gene deficient Δ194 bp heterozygous hamsters. As to the kind of experiment: High-fat diet feeding with intragastric ezetimibe in LDL-R+/- hamsters; plasma lipids, lipoprotein FPLC, body weight. It counts as in vivo, golden Syrian hamster. The method, then:
The high-fat diet used in the study was a normal rodent diet containing 0.5% cholesterol and 10% lard. The dose of ezetimibe was 2 mg/kg body weight, administered by intragastric administration, and the control group was given tri-distilled water. Plasma was collected before high-fat diet feeding, after two weeks of high-fat diet feeding, before administration and after two weeks of administration, respectively. The hamsters were fasted for 12 hours at night, anesthetized by intraperitoneal injection of pentobarbital sodium, and about 1 ml of blood was collected from the posterior orbital vein, and heparin was used for anticoagulation. A plasma triglyceride assay kit and a total cholesterol assay kit (Biosino Bio-Technology and Science Inc.) were used to detect plasma triglyceride and total cholesterol levels. High-density lipoprotein cholesterol (HDL-C) was tested for cholesterol levels after removal of apoB-containing lipoproteins by polyethylene glycol precipitation. The lipid component of plasma lipoprotein was detected by using fast protein liquid chromatography (FPLC) instrument of Amersham Biocsciences, USA, and the plasma lipoprotein fraction was firstly separated by superose 6 HR10/30 column. 200 μl of plasma was loaded through a 0.22 μm syringe filter, and the separated components were automatically collected at a rate of 0.5 mL per minute, 500 μl per component, for a total of 35 components. The above cholesterol detection kit was applied to each component to detect the cholesterol content, and a plasma lipoprotein profile was prepared.

[3] abbreviates: 2 mg/kg intragastric daily, two weeks, high-fat diet.

With `O=C1[C@H](CC[C@H](O)c2ccc(F)cc2)[C@@H](c2ccc(O)cc2)N1c1ccc(F)cc1` [ezetimibe], the “triglyceride level after administration” value is 157 mg/dL in data set [1] (high-fat diet only 413 mg/dL) and 225 mg/dL in data set [2] (LDL-R+/- hamsters, high-fat diet plus 2 mg/kg ezetimibe intragastric daily for two weeks, high-fat diet only 658 mg/dL). The “plasma cholesterol level after administration” value is listed as 111 mg/dL in data set [1] (high-fat diet only 513 mg/dL) and 157 mg/dL in data set [2] (LDL-R+/- hamsters, high-fat diet plus 2 mg/kg ezetimibe intragastric daily for two weeks, high-fat diet only 1864 mg/dL). Besides, the “effect on hyperlipidemia of LDL-R knockout hamsters” value in data set [2] (2 mg/kg intragastric daily, high-fat diet) was “significantly reverses hyperlipidemia; also recorded: significantly reversed hypelipidemia”. Further, the “HDL cholesterol in plasma (FPLC)” value in data set [2] (setting [3]) is given as “not significantly changed; also recorded: little effect on HDL”. The “VLDL and LDL cholesterol in plasma (FPLC)” value in data set [2] (setting [3]) was “decrease of VLDL-C and LDL-C; also recorded: mainly decreased VLDL and LDL in plasma”. In addition, the “body weight, ezetimibe-administered group vs high-fat diet feeding group” value in data set [2] (2 mg/kg intragastric daily, two weeks, high-fat diet, each group of hamsters (WT and LDL-R+/-)) is on record as “no significant difference”. The “plasma cholesterol change after administration (in words)” value in data set [2] (LDL-R heterozygous hamster on high-fat diet (0.5% cholesterol, 10% fat), ezetimibe 2 mg/kg) is recorded as “decreased to the level of the wild type hamster fed on common diet”.
